Assay results as given in ChEMBL document CHEMBL1151303, “New macrodiolide antibiotics, 11-O-monomethyl- and 11, 11'-O-dimethylelaiophylins, from Streptomyces sp. HKI-0113 and HKI-0114” (J Nat Prod, 1998).
In brackets after ≈: the same amount, converted by molar mass.

What was measured:
L929 = assay: Cytotoxicity against mouse L929 cells after 72 hrs by methylene blue staining; type: cell-based; conditions: L929, 72 h
HeLa = assay: Cytotoxicity against human HeLa cells by methylene blue staining; type: functional, cell-based
Bacillus subtilis = assay: Antimicrobial activity against Bacillus subtilis ATCC 6633 by agar plate diffusion assay; type: functional
Candida albicans = assay: Antimicrobial activity against Candida albicans by agar plate diffusion assay; type: functional
Enterococcus faecium = assay: Antimicrobial activity against Enterococcus faecium 1528 by agar plate diffusion assay; type: functional
K562 = assay: Cytotoxicity against human K562 cells after 72 hrs; type: functional, cell-based; conditions: K562, 72 h
Mycobacterium sp. = assay: Antimicrobial activity against Mycobacterium sp. SG 987 by agar plate diffusion assay; type: functional
Staphylococcus aureus = assay: Antimicrobial activity against Staphylococcus aureus 134/94 by agar plate diffusion assay; type: functional

For CC[C@@H]1[C@@H](C)O[C@@](OC)([C@@H](C)[C@H](O)[C@H](C)[C@H]2OC(=O)/C=C/C=C/[C@H](C)[C@@H]([C@@H](C)[C@@H](O)[C@H](C)[C@@]3(OC)C[C@@H](O[C@H]4C[C@H](O)[C@H](O)[C@H](C)O4)[C@H](CC)[C@@H](C)O3)OC(=O)/C=C/C=C/[C@@H]2C)C[C@H]1O[C@H]1C[C@H](O)[C@H](O)[C@H](C)O1, the IC50 (L929) was 2.4 µg/mL (≈ 2.28 µM), the IC50 (HeLa) was 2.2 µg/mL (≈ 2.09 µM) and the “inhibition zone (IZ)” value (Bacillus subtilis) was 23 mm. The “inhibition zone (IZ)” value (Candida albicans) was 0 mm, the “inhibition zone (IZ)” value (Enterococcus faecium) was 17 mm and the IC50 (K562) was 1.3 µg/mL (≈ 1.23 µM). The “inhibition zone (IZ)” value (Mycobacterium sp.) was 15 mm and the “inhibition zone (IZ)” value (Staphylococcus aureus) was 13 mm.
